Source: patent US20230373929A1, “FUSED RING DIIMIDE DERIVATIVE, PREPARATION METHOD AND USE THEREOF” (XIANGBEI WELMAN PHARMACEUTICAL CO., LTD., priority 2020, published 2023)
Read-outs that look alike come from different tables or passages of the source.

How the values were obtained:
[1] = system: human lung cancer cells NCI-H460; test: anti-proliferative activity against tumor cells, resazurin assay, NCI-H460; assay type: cell-based; conditions: read-out: IC50 Grades of Inhibitory Effects of Compounds on Tumor Cells, NCI-H460
Protocol: (§1) Objective: To test the anti-proliferative activity of the compound of the present disclosure against various tumor cells.
(§2) Test cells: human colon cancer cells (HT-29, COLO 205), human lung cancer cells (NCI-H460, A549) and human leukemia cells (HL-60, U-937).
(§3) Test method: each tumor cell was tested separately. Cells were incubated in medium at […] for 24 hours before use. The cells growing in an exponential growth phase were harvested and treated with trypsin to prepare a cell suspension, the cell suspension was centrifuged, then the cell pellet was resuspended in a small amount of fresh medium as a cell stock. The cell stock was diluted to required cell concentrations.
(§4) The test was carried out on 96-well plates; blank control groups, cell control groups and compound treatment groups were set up. In the blank control groups, only 10% PBS was added to each well, while in the cell control groups and the compound treatment groups, 100 μL of cells at the above concentration were added to each well, and then each well was filled with 200 μL of 10% PBS. The plates were placed in an incubator overnight. In the compound treatment groups, 100 μL of each test compound at different dilution concentrations was added to each well, the dilution concentrations of the compounds are as shown in Table 2.
(§5) After the addition of the drug to each well was completed, the plates were cultured in an incubator for 96 hours, 22 μL of resazurin sodium solution (Alarm blue, SIGMA R7017) was added to each well. The plates were returned to the incubator for another 4 hours of incubation and then shaken for 10 seconds after being taken out. The fluorescence value of each well were recorded at 530/590 nm.
(§6) The above operations were repeated three times.
(§7) The IC50 value of each test compound was calculated by Prism7 software. IC50 was divided into different grades according to values, that is, SS: <1 μM; S: 1-5 μM; A: 5-10 μM; B: 11-20 μM; C: 21-50 μM; D: 51-100 μM; E: >100 μM.

[2] = system: human lung cancer cells A549; test: anti-proliferative activity against tumor cells, resazurin assay, A549; assay type: cell-based; conditions: read-out: IC50 Grades of Inhibitory Effects of Compounds on Tumor Cells, A549
Protocol: as §1, §2, §3, §4, §5, §6, §7

[3] = system: human colon cancer cells COLO 205; test: anti-proliferative activity against tumor cells, resazurin assay, COLO 205; assay type: cell-based; conditions: read-out: IC50 Grades of Inhibitory Effects of Compounds on Tumor Cells, COLO205
Protocol: as §1, §2, §3, §4, §5, §6, §7

[4] = system: human leukemia cells U-937; test: anti-proliferative activity against tumor cells, resazurin assay, U-937; assay type: cell-based; conditions: read-out: IC50 Grades of Inhibitory Effects of Compounds on Tumor Cells, U-937
Protocol: as §1, §2, §3, §4, §5, §6, §7

[5] = system: human colon cancer cells HT-29; test: anti-proliferative activity against tumor cells, resazurin (Alamar blue) assay, HT-29; assay type: cell-based; conditions: read-out: IC50 Grades of Inhibitory Effects of Compounds on Tumor Cells, HT-29
Protocol: as §1, §2, §3, §4, §5, §6, §7

[6] = system: human leukemia cells HL-60; test: anti-proliferative activity against tumor cells, resazurin assay, HL-60; assay type: cell-based; conditions: read-out: IC50 Grades of Inhibitory Effects of Compounds on Tumor Cells, HL-60
Protocol: as §1, §2, §3, §4, §5, §6, §7

[7] = system: tumor cells; test: anti-proliferative activity, overall comparison over all tumor cells; assay type: cell-based, human; conditions: all tested tumor cells, under the test condition of the present disclosure
Protocol: as §1, §2, §3
(§8) The test was carried out on 96-well plates; blank control groups, cell control groups and compound treatment groups were set up. In the blank control groups, only 10% PBS was added to each well, while in the cell control groups and the compound treatment groups, 100 μL of cells at the above concentration were added to each well, and then each well was filled with 200 μL of 10% PBS. […]
(§9) After the addition of the drug to each well was completed, the plates were cultured in an incubator for 96 hours, 22 μL of resazurin sodium solution (Alarm blue, SIGMA R7017) was added to each well. […] The fluorescence value of each well were recorded at 530/590 nm.
(§10) The IC50 value of each test compound was calculated by Prism7 software. […]

[8] = system: colon cancer cells; test: anti-proliferative activity, colon cancer cells; assay type: cell-based, human; conditions: versus similar compounds (Compound 1d, Compound 1)
Protocol: as §1, §2, §3, §8, §9, §10

[9] = Homo sapiens, NCI-H460, 96 hours culture, resazurin fluorescence 530/590 nm
[10] = Homo sapiens, A549, 96 hours culture, resazurin fluorescence 530/590 nm
[11] = Homo sapiens, COLO 205, COLO205, 96 hours culture, resazurin fluorescence 530/590 nm
[12] = Homo sapiens, U-937, 96 hours culture, resazurin fluorescence 530/590 nm
[13] = Homo sapiens, HT-29, 96 hours culture, resazurin fluorescence 530/590 nm
[14] = Homo sapiens, HL-60, 96 hours culture, resazurin fluorescence 530/590 nm

Row | SMILES | IC50 [1, 9] | IC50 [2, 10] | IC50 [3, 11] | IC50 [4, 12] | IC50 [5, 13] | IC50 [6, 14] | IC50 ([1]; Homo sapiens, NCI-H460, 96 h) | IC50 ([2]; Homo sapiens, A549, 96 h) | IC50 ([3]; Homo sapiens, COLO 205, 96 h) | IC50 ([4]; Homo sapiens, U-937, 96 h) | IC50 ([5]; Homo sapiens, HT-29, 96 h) | IC50 ([6]; Homo sapiens, HL-60, 96 h) | also measured
1 | CN(C)CCN1C(=O)c2cccc3cc(N)cc(c23)C1=O [Amonafide, reference compound] | 11 to 20 µM | 1 to 5 µM | 5 to 10 µM | 11 to 20 µM | 11 to 20 µM | 5 to 10 µM | – | – | – | – | – | – | –
2 | O=NN(CCCl)C(=O)NCCN1C(=O)c2cccc3cc([N+](=O)[O-])cc(c23)C1=O [Compound 1, reference compound] | – | – | – | – | – | – | 11 to 20 µM | 5 to 10 µM | 21 to 50 µM | 21 to 50 µM | 21 to 50 µM | 11 to 20 µM | overall anti-tumor activity, comparison in words [7]: inferior to that of Amonafide
3 | O=NN(CCCl)C(=O)NCCCCN1C(=O)c2cccc3cccc(c23)C1=O [Compound 1d, reference compound] | – | – | – | – | – | – | 51 to 100 µM | 21 to 50 µM | 21 to 50 µM | 11 to 20 µM | 21 to 50 µM | 21 to 50 µM | overall anti-tumor activity, comparison in words [7]: inferior to that of Amonafide
4 | O=C(NCCNCCCCN1C(=O)c2cccc3cccc(c23)C1=O)N(CCl)CCl [Compound I-01] | – | – | – | – | – | – | 5 to 10 µM | 1 to 5 µM | 1 to 5 µM | 1 to 5 µM | 1 to 5 µM | 5 to 10 µM | –
5 | O=C(OCCOCCCCN1C(=O)c2cccc3cccc(c23)C1=O)N(CCl)CCl [Compound I-02] | – | – | – | – | – | – | – | – | – | – | – | – | IC50 ([1]; NCI-H460, 96 hours culture, resazurin fluorescence 530/590 nm): 5 to 10 µM; IC50 ([2]; A549, 96 hours culture, resazurin fluorescence 530/590 nm): 5 to 10 µM; IC50 ([3]; COLO205, 96 hours culture, resazurin fluorescence 530/590 nm): 5 to 10 µM; IC50 ([4]; U-937, 96 hours culture, resazurin fluorescence 530/590 nm): 5 to 10 µM; IC50 ([5]; HT-29, 96 hours culture, resazurin fluorescence 530/590 nm): 5 to 10 µM; IC50 ([6]; HL-60, 96 hours culture, resazurin fluorescence 530/590 nm): 5 to 10 µM
6 | O=NN(CCCl)C(=O)NCNCCN1C(=O)c2cccc3cc([N+](=O)[O-])cc(c23)C1=O [Compound I-03] | – | – | – | – | – | – | 5 to 10 µM | 1 to 5 µM | < 1 µM | 5 to 10 µM | 1 to 5 µM | 1 to 5 µM | activity relative to that of similar compounds [8]: 50 times
7 | O=NN(CCCl)C(=O)NCCNCCCCN1C(=O)c2cccc3cccc(c23)C1=O [Compound I-04] | – | – | – | – | – | – | 5 to 10 µM | 5 to 10 µM | 1 to 5 µM | 1 to 5 µM | < 1 µM | 1 to 5 µM | activity relative to that of similar compounds [8]: 50 times
8 | CON(C)C(=O)N(C)CCCCNCCN1C(=O)c2cccc3c(N(C)C)ccc(c23)C1=O [Compound I-05] | 5 to 10 µM | 5 to 10 µM | 1 to 5 µM | 5 to 10 µM | 1 to 5 µM | 5 to 10 µM | – | – | – | – | – | – | –
9 | COc1ccc2cc3c(cc2c1)C(=O)N(COCCN(OC)C(=O)N(C)C)C3=O [Compound I-08] | 5 to 10 µM | 5 to 10 µM | 5 to 10 µM | 5 to 10 µM | 11 to 20 µM | 5 to 10 µM | – | – | – | – | – | – | –
10 | CN(C)C(=O)NCCN(CCCN1C(=O)c2cccc3cc4ccccc4c(c23)C1=O)[N+](=O)[O-] [Compound I-10] | 1 to 5 µM | 5 to 10 µM | 1 to 5 µM | 5 to 10 µM | 5 to 10 µM | 1 to 5 µM | – | – | – | – | – | – | –
11 | CCSC(=O)OCCCCOCN1C(=O)c2cccc3c(C)c4ccccc4c(c23)C1=O [Compound I-12] | 5 to 10 µM | 5 to 10 µM | 5 to 10 µM | 11 to 20 µM | 5 to 10 µM | 11 to 20 µM | – | – | – | – | – | – | –
12 | CCN(C)C(=O)NCCN(CCN1C(=O)c2cccc3c2c(cc2ccccc23)C1=O)OC [Compound I-15] | 1 to 5 µM | 5 to 10 µM | 5 to 10 µM | 1 to 5 µM | 1 to 5 µM | 5 to 10 µM | – | – | – | – | – | – | –
13 | CN(N=O)C(=O)NCCCCCCNCN1C(=O)c2cccc3c2c(cc2ccc(C#N)cc23)C1=O [Compound I-17] | 1 to 5 µM | 1 to 5 µM | 5 to 10 µM | 1 to 5 µM | 1 to 5 µM | 5 to 10 µM | – | – | – | – | – | – | –
14 | CC(C)(C)OC(=O)N1CCN(CCCN2C(=O)c3ccc4c5cccc6c(Br)ccc(c7ccc(c3c47)C2=O)c65)CC1 [Compound I-18] | 5 to 10 µM | 5 to 10 µM | 11 to 20 µM | 11 to 20 µM | 5 to 10 µM | 5 to 10 µM | – | – | – | – | – | – | –
15 | CONC(=O)NCCN(CCCCN1C(=O)c2cccc3c2c(cc2ccoc23)C1=O)OC [Compound I-20] | 5 to 10 µM | 1 to 5 µM | 5 to 10 µM | 5 to 10 µM | 5 to 10 µM | 5 to 10 µM | – | – | – | – | – | – | –
